Experimental data as given in publication PMC7391959 (ACS Omega, 2020).
Like-named read-outs stand apart in the source and are kept apart here.

Legend:
β-glucosidase (almonds) [1] = conditions: cited from earlier work
[2] = target: T1, α-galactosidase (green coffee beans) (Coffea arabica, UniProt Q42656); parameters: method as in PMID 21548609; conditions: cited from earlier work
T1 construct: purchased

[3] = target: T2, β-galactosidase (A. oryzae) (Aspergillus oryzae, UniProt Q2UCU3); parameters: method as in PMID 21548609; conditions: cited from earlier work
T2 construct: purchased
T2 sequence (Q2UCU3 19-1005): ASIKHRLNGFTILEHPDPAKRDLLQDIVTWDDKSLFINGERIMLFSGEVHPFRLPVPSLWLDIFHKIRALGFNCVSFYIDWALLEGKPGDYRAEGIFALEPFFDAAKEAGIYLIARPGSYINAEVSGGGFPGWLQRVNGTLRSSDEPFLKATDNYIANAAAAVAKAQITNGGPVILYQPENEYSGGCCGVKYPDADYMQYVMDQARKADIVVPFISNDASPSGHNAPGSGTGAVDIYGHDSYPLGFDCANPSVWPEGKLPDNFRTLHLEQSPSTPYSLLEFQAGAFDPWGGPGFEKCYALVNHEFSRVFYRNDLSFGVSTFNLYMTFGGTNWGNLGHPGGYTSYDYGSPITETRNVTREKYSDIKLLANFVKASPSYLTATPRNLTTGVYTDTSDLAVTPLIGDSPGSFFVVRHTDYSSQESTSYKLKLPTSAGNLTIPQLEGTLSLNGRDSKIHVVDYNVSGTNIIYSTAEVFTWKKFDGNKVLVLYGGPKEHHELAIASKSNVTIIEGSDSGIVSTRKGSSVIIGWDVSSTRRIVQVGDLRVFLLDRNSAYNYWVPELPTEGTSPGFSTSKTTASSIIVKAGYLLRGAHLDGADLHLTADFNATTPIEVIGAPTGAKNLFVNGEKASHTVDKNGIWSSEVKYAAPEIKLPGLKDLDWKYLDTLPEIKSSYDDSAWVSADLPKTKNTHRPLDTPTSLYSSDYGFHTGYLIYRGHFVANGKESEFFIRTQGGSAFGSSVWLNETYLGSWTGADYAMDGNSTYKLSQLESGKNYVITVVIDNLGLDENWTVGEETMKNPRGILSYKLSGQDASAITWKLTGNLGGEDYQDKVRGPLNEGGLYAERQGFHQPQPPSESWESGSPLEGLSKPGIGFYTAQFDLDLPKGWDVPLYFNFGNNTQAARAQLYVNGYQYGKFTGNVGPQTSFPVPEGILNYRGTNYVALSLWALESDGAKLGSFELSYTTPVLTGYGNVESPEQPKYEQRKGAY

[4] = target: T3, β-galactosidase (E. coli) (Escherichia coli, UniProt P00722); conditions: cited from earlier work
T3 construct: purchased
T3 sequence (P00722 2-1024): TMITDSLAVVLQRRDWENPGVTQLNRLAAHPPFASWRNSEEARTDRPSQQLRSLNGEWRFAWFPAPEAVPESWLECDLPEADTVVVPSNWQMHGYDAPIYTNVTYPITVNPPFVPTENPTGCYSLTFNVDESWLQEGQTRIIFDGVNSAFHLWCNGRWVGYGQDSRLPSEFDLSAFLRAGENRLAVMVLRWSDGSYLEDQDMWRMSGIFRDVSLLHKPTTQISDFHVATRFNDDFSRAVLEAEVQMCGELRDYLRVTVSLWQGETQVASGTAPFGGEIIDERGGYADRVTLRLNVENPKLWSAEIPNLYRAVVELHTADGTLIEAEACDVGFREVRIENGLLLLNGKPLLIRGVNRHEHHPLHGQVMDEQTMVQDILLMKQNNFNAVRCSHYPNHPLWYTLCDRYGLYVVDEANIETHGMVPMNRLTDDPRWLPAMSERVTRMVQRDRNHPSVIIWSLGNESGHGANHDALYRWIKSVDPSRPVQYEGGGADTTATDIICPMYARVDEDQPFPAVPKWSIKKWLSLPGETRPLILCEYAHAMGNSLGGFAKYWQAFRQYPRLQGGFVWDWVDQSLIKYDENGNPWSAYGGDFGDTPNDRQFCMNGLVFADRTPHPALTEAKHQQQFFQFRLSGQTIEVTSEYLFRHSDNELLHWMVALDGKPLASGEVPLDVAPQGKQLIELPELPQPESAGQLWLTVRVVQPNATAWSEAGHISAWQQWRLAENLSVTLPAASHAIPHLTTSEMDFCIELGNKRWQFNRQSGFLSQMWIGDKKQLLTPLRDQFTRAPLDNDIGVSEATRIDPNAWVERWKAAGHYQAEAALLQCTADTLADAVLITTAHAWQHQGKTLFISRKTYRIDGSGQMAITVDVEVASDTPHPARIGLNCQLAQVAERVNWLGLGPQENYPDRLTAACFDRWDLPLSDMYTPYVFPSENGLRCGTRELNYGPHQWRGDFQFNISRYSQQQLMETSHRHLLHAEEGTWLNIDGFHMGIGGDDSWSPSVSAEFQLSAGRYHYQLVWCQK

[5] = target: α-glucosidase (S. cerevisiae); assay: Glycosidase inhibition assay, α-glucosidase; type: biochemical, Saccharomyces cerevisiae; conditions: for IC50: 100 μM = maximum inhibitor concentration tested
Procedure: (§1) Inhibition assays for glycosidases were accomplished using the methodology reported by Bols and co-workers.[32] The percentage of inhibition was measured by preparing two 1.2 mL samples in PS cuvettes containing 0.1 M phosphate buffer (pH 6.8 or 5.6 for mannosidases) and the corresponding o- or p-nitrophenyl-glycopyranoside at a concentration equal to the expected value of KM: [S] = 0.25 mM for α-glucosidase, 4.0 mM for β-glucosidase; 0.60 mM for α-galactosidase, 0.51 mM for β-galactosidase (E. coli), 1.5 mM for β-galactosidase (A. oryzae), 0.90 mM for α-mannosidase, and 0.58 mM for β-mannosidase. DMSO (control) or inhibitor solution (DMSO) plus water was added up to a constant volume of 1.14 mL. Screenings were conducted using a 100 μM final inhibitor concentration.
(§2) Reactions were started by adding 60 μL of properly diluted enzyme solution at 25 ± 0.1 °C or 35 ± 0.1 °C (for mannosidases), and the formation of the corresponding o- or p-nitrophenolate was monitored for 125 s by measuring the increase in absorbance at 400 nm (glucosidases and α-galactosidase) or 420 nm (β-galactosidases) for 125 s. For α- and β-mannosidases, an aliquot (200 μL) was taken every 60 s and added to a 1 M Na2CO3 solution (1.8 mL), and the absorbance was measured at 400 nm over a period of 4 min.
(§3) Initial rates (slopes of the plots Abs vs t) were used for calculating %I, according to the following expression: [drawing 1] where v0 is the reaction rate for the enzyme solution and v is the reaction rate for the reactions incorporating an inhibitor.
(§4) DMSO concentration was maintained at 5% (v/v) of the total assay mixture for glycosidases.
(§5) The mode of inhibition was determined using the Cornish-Bowden method,[33] which involves the use of two different plots: 1/v vs [I] (Dixon plot) and [S]/v vs [I]. For the calculation of kinetic parameters (KM, Vmax), a nonlinear regression analysis (least-squares fit) was used.

β-glucosidase (almonds) [6] = assay: Glycosidase inhibition assay, β-glucosidase; type: biochemical; conditions: for IC50: pH 6.8, 25 °C, 100 μM = maximum inhibitor concentration tested; for inhibition: at 100 μM inhibitor concentration
Procedure: as §1, §2, §3, §4, §5

[7] = target: T1, α-galactosidase (green coffee beans); assay: Glycosidase inhibition assay, α-galactosidase; type: biochemical; conditions: at 100 μM inhibitor concentration
Procedure: as §1, §2, §3, §4, §5

[8] = target: T2, β-galactosidase (A. oryzae); assay: Glycosidase inhibition assay, β-galactosidase (A. oryzae); type: biochemical; conditions: at 100 μM inhibitor concentration
Procedure: as §1, §2, §3, §4, §5

[9] = target: T3, β-galactosidase (E. coli); assay: Glycosidase inhibition assay, β-galactosidase (E. coli); type: biochemical; conditions: at 100 μM inhibitor concentration
Procedure: as §1, §2, §3, §4, §5

[10] = target: T4, α-mannosidase (jack beans) (Canavalia ensiformis, UniProt C0HJB3); assay: Glycosidase inhibition assay, α-mannosidase; type: biochemical; conditions: for mode of inhibition: Cornish-Bowden method; for Ki: pH 5.6, 35 °C, competitive inhibition
T4 construct: purchased
T4 sequence (C0HJB3 1-981): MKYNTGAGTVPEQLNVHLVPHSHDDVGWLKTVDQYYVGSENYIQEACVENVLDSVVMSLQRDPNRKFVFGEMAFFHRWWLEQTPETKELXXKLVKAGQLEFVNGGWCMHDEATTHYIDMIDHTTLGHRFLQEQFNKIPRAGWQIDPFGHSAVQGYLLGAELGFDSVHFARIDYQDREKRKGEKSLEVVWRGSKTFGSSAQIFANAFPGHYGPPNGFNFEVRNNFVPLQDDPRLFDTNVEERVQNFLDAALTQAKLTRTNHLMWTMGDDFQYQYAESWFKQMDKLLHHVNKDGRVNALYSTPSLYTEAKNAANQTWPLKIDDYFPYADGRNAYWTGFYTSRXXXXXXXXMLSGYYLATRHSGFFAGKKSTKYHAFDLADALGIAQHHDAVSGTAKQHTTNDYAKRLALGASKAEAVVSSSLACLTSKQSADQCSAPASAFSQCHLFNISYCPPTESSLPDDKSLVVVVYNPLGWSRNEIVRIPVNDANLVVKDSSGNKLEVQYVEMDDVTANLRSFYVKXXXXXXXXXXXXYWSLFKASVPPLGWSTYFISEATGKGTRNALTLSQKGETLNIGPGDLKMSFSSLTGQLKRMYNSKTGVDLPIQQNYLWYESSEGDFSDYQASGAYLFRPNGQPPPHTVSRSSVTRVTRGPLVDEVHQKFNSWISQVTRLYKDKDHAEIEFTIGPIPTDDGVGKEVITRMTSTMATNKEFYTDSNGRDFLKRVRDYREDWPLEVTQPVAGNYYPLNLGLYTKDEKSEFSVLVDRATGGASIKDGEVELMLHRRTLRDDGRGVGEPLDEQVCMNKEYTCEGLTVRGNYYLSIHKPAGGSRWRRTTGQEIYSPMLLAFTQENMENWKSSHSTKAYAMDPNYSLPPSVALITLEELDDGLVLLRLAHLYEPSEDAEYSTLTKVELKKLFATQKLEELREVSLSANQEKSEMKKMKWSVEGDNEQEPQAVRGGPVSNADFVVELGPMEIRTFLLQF
Procedure: as §1, §2, §3, §4, §5

[11] = test system: β-mannosidase (H. pomatia); assay: Glycosidase inhibition assay, β-mannosidase; type: biochemical, Helix pomatia; conditions: at 100 μM inhibitor concentration
Procedure: as §1, §2, §3, §4, §5

T1 sequence (Q42656 16-378): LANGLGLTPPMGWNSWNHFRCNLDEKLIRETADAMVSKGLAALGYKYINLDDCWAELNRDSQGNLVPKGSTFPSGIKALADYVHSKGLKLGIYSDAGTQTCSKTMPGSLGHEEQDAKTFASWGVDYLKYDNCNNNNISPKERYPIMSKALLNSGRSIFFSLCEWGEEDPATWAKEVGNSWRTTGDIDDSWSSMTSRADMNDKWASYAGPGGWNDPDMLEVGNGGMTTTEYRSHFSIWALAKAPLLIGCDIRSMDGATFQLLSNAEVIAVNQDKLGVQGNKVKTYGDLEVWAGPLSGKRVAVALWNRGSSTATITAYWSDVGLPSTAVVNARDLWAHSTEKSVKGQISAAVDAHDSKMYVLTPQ

SMILES | Ki (β-glucosidase (almonds) [1]) | inhibition [2] | Ki [3] | inhibition [4] | IC50 ([5]; pH 6.8, 25 °C) | IC50 (β-glucosidase (almonds) [6]) | inhibition [7] | inhibition [8] | inhibition [9] | Ki (β-glucosidase (almonds) [1]; source of β-glucosidase not given) | inhibition (β-glucosidase (almonds) [6]) | inhibition ([10]; at 100 μM inhibitor concentration) | inhibition [11] | mode of inhibition ([5]; Cornish-Bowden method) | Ki ([5]; pH 6.8, 25 °C) | mode of inhibition [10] | Ki [10] | fold impairment in the activity against α-mannosidase ([10]; N-ethyl 5Cl compared with 4Cl)
N=C1NC[C@H](CO)[C@@H](O)[C@@H]1O [compound 2, isofagomidine] | > 210 µM | N.I. ^d | 210 µM | N.I. ^d |  |  |  |  |  |  |  |  |  |  |  |  |  | 
OC[C@H]1CNC[C@@H](O)[C@@H]1O [compound 1, isofagomine, reference compound] |  |  |  |  | 32 µM | 0.48 µM | N.I. ^b | N.I. ^b | N.I. ^b | 0.11 µM |  |  |  |  |  |  |  | 
OC[C@H]1NC[C@H](O)[C@@H](O)[C@@H]1O [DNJ, 1-deoxynojirimycin, reference compound] |  |  |  |  |  | […] |  | N.I. ^b | N.I. ^b |  |  |  |  |  |  |  |  | 
Cl.NN1C(=O)[C@@H](O)[C@H](O)[C@H]1CO [6HCl, (3S,4R,5R)-1-Amino-3,4-dihydroxy-5-(hydroxymethyl)-2-pyrrolidinone Hydrochloride] |  |  |  |  | > 100 µM |  | N.I. ^b | N.I. ^b | N.I. ^b |  | N.I. ^b | N.I. ^b | N.I. ^b |  |  |  |  | 
Cl.N=C1[C@@H](O)[C@H](O)[C@@H](CO)N1N [4Cl, (2R,3R,4R)-1-Amino-3,4-dihydroxy-2-(hydroxymethyl)-5-iminopyrrolidine Hydrochloride] |  |  |  |  | 6.6 µM | > 100 µM | N.I. ^b | N.I. ^b | N.I. ^b |  |  |  | N.I. ^b | competitive | 5 µM | competitive | 0.23 µM | 
CCNN1C(=N)[C@@H](O)[C@H](O)[C@H]1CO.Cl [5Cl, (2R,3R,4R)-1-(Ethylamino)-3,4-dihydroxy-2-(hydroxymethyl)-5-iminopyrrolidine Hydrochloride] |  |  |  |  | > 100 µM |  | N.I. ^b | N.I. ^b | N.I. ^b |  | N.I. ^b |  | N.I. ^b |  |  | competitive | 1.4 µM | roughly 6 fold
